Key:
[1] = pure liquids at 25° C.; cited from earlier work
Mucin = assay: Mucoadhesion, tensile strength with texture analyzer, towards mucin; settings: upper sample Mucin
Experimental: Mucoadhesion is related to the ability to adhere to the mucosa. […] Hygroscopic formulations absorbs water molecules but at different timescales depending on the composition. Tensile strength using micro balance texture analyzer was used to measure the mucoadhesion. The work needed to separate two layers from each other is calculated as well as the peak measured force.
The microemulsions show quite strong mucoadhesion, with similar tensile strength values. To get some reference values, the mucoadhesion of olive oil, propylene glycol and PGMO were also tested as well as the adhesion of microemulsions towards water. Propylene glycol was chosen to determine if humectant properties on its own had any influence on the adhesion strength.

Row | Compound | Surface tension [1] [mN/m] | Peak force (Mucin) [kg] | Mucoadhesion (Mucin; work needed to separate layers) [kg·s]
1 | OCC(O)CO [glycerol] | 76 | – | –
2 | CC(O)CO (stereo not shown) [Propylene Glycol, propylene glycol] | 45.6 | 0.50 ± 0.05 | 0.051 ± 0.009
